# Columns and labels:
# [1] = molecular target: T1, inducible caspase 9 (iCasp9) (Homo sapiens, UniProt P55211+P62942, F37V); conditions: patients wherein GVHD developed; cited from earlier work
# T1 construct: human caspase 9 (fusion partner in the same polypeptide)
# [2] = test system: GPR15 expression; test: In vitro stimulation of T cells to examine GFP (GPR15 reporter) induction; type: cell-based, mouse; conditions: various concentration of retinoic acid with IL-2 only, 3 days, CD4+ Tnaive and Tregs from Gpr15gfp/+ Foxp3ires-mrfp mice
# Protocol: All T cell cultures were done in RPMI-10. CD4^+ Tnaive (CD62L^hiCD44^loCD25^−mRFP^− GFP^−), Tregs with naive phenotype (CD62L^hiCD44^loCD25^+mRFP^+ GFP^−), Tmemory (CD62L^loCD44^hiCD25^−mRFP^− GFP^−), and Tregs with memory phenotype (CD62L^loCD44^hiCD25^+mRFP^+ GFP^−) were sorted from Gpr15^gfp/+ Foxp3^ires-mrfp mice. Sorted cells were stimulated with 0.25 μg/ml αCD3ε (145-2c11, ATCC) and 1 μg/ml of αCD28 antibodies (37.51, eBiosciences) cross-linked by plate-bound α-hamster IgG in the presence of human IL-2 (100 U/ml) alone, or additionally with IL-21 (10 ng/ml, R&D systems) or IL-6 (20 ng/ml, Peprotech), or IL-27 (20 ng/ml, eBioscience) in the presence of varying concentrations of human TGF-β1 (αTGFβ blocking antibody [R&D systems], or 0, 0.5 ng/ml, or 5 ng/ml TGF-β1 [Peprotech]) for 3 days. The same conditions were used for retinoic acid (Sigma-Aldrich) treatment with IL-2 only.
# [3] = test system: homing of T cells to the large intestine lamina propria (LILP); test: Short-term competitive homing assay; type: in vivo, mouse; conditions: GPR15+ cells treated before transfer, co-transfer with untreated control-transduced cells
# Protocol: The coding region of mouse GPR15 was cloned into the MSCV-IRES-Thy1.1 retroviral construct (38). Retroviruses were generated by transient transfection of Phoenix cells. CD4^+ CD62L^highCD44^lowCD25^− Tnaive cells were sorted by FACS Aria IIu (BD Biosciences) and stimulated with 0.25 μg/ml of αCD3ε (145-2c11, ATCC) and 1 μg/ml of αCD28 (37.51, eBiosciences) antibodies cross-linked by plate-bound α-hamster IgG (MP Biochemical) in RPMI-10. At day 1 and day 2 after stimulation, cells were transduced with retrovirus (spinning at 850 g for 2 h with 4 μg/ml of polybrene). CD4^+ Tnaive cells from B6. SJL-Ptprc^aPep3^b/BoyJ (The Jackson Laboratory) were used for transduction of Gpr15 and CD4^+ Tnaive cells from C57BL/6 were used for transduction of empty vector. At day 3, cells were washed and plated again only with 100 U/ml of IL-2. At day 5, live cells were harvested by lymphocyte-M (Cedarlane). The congenic cells were mixed at a 1:1 ratio and 20-30 million mixed cells in total were transferred intravenously into the recipient mice (C57BL/6). Migration of donor cells into each organ was determined at 10 h after transfer (unless specified) by flow cytometry analysis. All donor cells expressed THY1.1 and GPR15-expressing cells and control cells expressed CD45.1 and CD45.2, respectively. […]
# T1 sequence (P62942+P55211 fused P62942:F37V): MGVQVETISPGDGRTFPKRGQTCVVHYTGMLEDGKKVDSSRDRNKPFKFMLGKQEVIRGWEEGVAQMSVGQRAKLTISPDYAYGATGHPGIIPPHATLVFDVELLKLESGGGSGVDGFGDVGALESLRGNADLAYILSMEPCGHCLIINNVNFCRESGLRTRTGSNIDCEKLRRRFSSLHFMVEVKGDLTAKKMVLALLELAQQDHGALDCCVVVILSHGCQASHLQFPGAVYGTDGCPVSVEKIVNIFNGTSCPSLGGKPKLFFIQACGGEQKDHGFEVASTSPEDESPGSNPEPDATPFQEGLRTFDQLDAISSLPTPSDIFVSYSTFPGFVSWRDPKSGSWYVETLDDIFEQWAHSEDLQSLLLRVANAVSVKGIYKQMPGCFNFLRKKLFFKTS
compound,measurement,setting,value
CC[C@H](C(=O)N1CCCC[C@H]1C(=O)O[C@H](CCc1ccc(OC)c(OC)c1)c1cccc(OCC(=O)NCCNC(=O)COc2cccc([C@@H](CCc3ccc(OC)c(OC)c3)OC(=O)[C@@H]3CCCCN3C(=O)[C@@H](CC)c3cc(OC)c(OC)c(OC)c3)c2)c1)c1cc(OC)c(OC)c(OC)c1 [AP1903],elimination of the transplanted genetically modified T cells,[1],greater than 90%
CC1=C(/C=C/C(C)=C/C=C/C(C)=C/C(=O)O)C(C)(C)CCC1 [Retinoic acid],GPR15 induction (GFP reporter),[2],does not induce GPR15 expression
same,GPR15 induction (GFP reporter),[2]; listed as RA,not induced
pertussis toxin,enrichment of Gpr15-transduced cells in the LILP after treatment of the cells before transfer,[3],no longer enriched in the LILP
